Patent US20240277708A1, “Use of [1,2,4] Triazolo [4,3-B] Pyridazine Derivative For Preventing and Treating Senescence and Senescence-Related Diseases” (The Eighth Affiliated Hospital, Sun Yat-Sen University, priority 2023, published 2024)

Experiments:
[1] = stated for a known small molecule drug, no test described; cited from earlier work
[2] = test system: IPF mice (C57BL/6, bleomycin); experiment: Bleomycin-induced idiopathic pulmonary fibrosis (IPF) mouse model; type: in vivo
Method: A mouse model of […] was constructed by injecting bleomycin (2 mg/kg) into the lungs of the mice through the airway after anesthesia.
(1) Sacrificing the mice after anesthesia, and weighing the lungs and recording as Mlung; {umlaut over (2)} weighing the empty 1.5 mL centrifuge tube, filling with normal saline and the recording the weight of the centrifuge tube again; calculating the exact volume of the tube (Vtube) based on the weight and density of normal saline; (3) completely immersing the lung tissue in the normal saline of the centrifuge tube, covering the lid of centrifuge tube after removing the air, wiping off the water stains around the tube, and recording the weight as M; (4) calculating the weight of normal saline in the tube: […]; (5) calculating the volume of normal saline in the tube: Vsaline=[…], wherein, ρsaline is the density of normal saline; (6) calculating lung volume: Vlung=Vtube−Vsaline; and (7) calculating lung density: μlung=Mlung/Vlung.
The lung tissues were fixed by immersion in 4% paraformaldehyde and then gradiently dehydrated in 70% ethanol for 5 hours, 80% ethanol for 1 h, 90% ethanol for 1 h, 95% ethanol for 1 h, absolute ethanol for 1 h, absolute ethanol for 0.5 h, absolute ethanol+TO (1:1) for 1 h, TO for 1 h, TO for 1 h, paraffin (62° C.) for 1 h, paraffin (62° C.) for 1 h, paraffin (62° C.) for 1 h. After dehydration, the lung tissues were wrapped in the wax blocks and sectioned with a thickness of 4 μm. The paraffin sections were baked at 65° C. for 1 h and then exposed to xylene for 5 min, xylene for 5 min, absolute ethanol for 5 min, 95% ethanol for 5 min, 90% ethanol for 5 min, 85% ethanol for 5 min, 75% ethanol for 5 min; then, gently boiled in citric acid solution for 10 min and naturally cooled to room temperature, and exposed to 3% hydrogen peroxide for 10 min. The sections were blocked with goat antiserum for 1 h at room temperature, incubated overnight with primary antibodies against CD45 (abeam), CD3 (abeam) or CD68 (abeam), then washed 3 times with PBS for 5 min each time, and then incubated with immunohistochemical secondary antibodies (Fujian Maixin) at room temperature for 20 min. Then, the sections was subjected to color development for 2 min by using DAB chromogenic kit (Fujian Maixin), rinsed with water to remove DAB, stained with hematoxylin for 2 min and rinsed with running water for 8 minutes to return blue. After drying, the sections were sealed with neutral gum and photographed.
In this example, the degree of fibrosis in lung tissue was detected through Masson staining, using the Masson trichrome staining kit (Fujian Maixin).
To investigate whether C1632 can be used for the treatment of IPF, the inventors treated IPF mice with C1632 according to the method of FIG. 9A, and divided the mice into (1) normal mice+normal saline group; (2) normal mice+C1632 group; (3) IPF mice+normal saline group; and (4) IPF mice+C1632 group, each group had at least 4 mice. At the end of the experiment, the lung tissues of the mice were taken and photographed. […] The lungs of the model group are dark red, and some lung lobes are gray white, hardened, and scattered gray white plaques of different sizes could be seen.

TERC−/− G4 mice = experiment: TERC−/− G4 senescence mouse model: survival and lung immunohistochemistry; type: in vivo
Method: Paraffin sections were melted at 65° C. for 1 h, rehydrated by rinsing in xylene for 10 min, xylene for 10 min, absolute ethanol for 3 min, 95% ethanol for 3 min, 85% ethanol for 3 min, 70% ethanol for 3 min and water, followed by two rinses with PBS for 5 min each. The sections were blocked with 3% hydrogen peroxide (in methanol) for 10 min, and then washed twice with PBS for 5 min each time. Then the sections were put into antigen retrieval buffer (pH 6.0) and heat by microwave for 10 min to retrieve antigen, then, slowly cool the solution at room temperature for 1 h, and wash the solution twice with PBS for 5 min each time. The sections were blocked with 10% goat serum for 1 h, incubated overnight with the primary antibodies at 4° C. in the dark, washed twice with PBS for 5 min each time, incubated with the secondary antibodies at room temperature in the dark for 30 min, and washed twice with PBS for 5 min each time. The sections were subjected to DAB color development and hematoxylin staining, and then rinsed in tap water for 8 min to produce a blue color. The sections were dehydrated with gradient alcohol, dried, and sealed with neutral gum.
1, TERC−/−G4 senescence mouse model: Mice had very long telomere length, and it took 3-6 generations of breeding to develop a premature senescence phenotype after telomerase knockout. TERC+/−mice were screened for TERC+/−mice as breeding protection. The first generation of TERC−/− mice was G1 mice. G1 mice were mated with each other to give birth to G2 mice, which continued to reproduce until G4. At this time, mice had very short telomeres and could develop senescence phenotype at 3-4 months of age.
2, Genotype identification of TERC knockout mice: Small segments of tails were cut from the identified mice and digested in 10 mM Tris-HCl 0.5% SDS 1 mM EDTA pH8.0 buffer containing 0.4 mg/mL proteinase K at 65° C. for 2 hours, and then 0.5 μL digestive solution was used as a template for PCR amplification. PCR products which were 250 bp indicated wild-type and 180 bp indicated TERC knockdown.
3, One-month-old G4 mice were given 68 mg/kg C1632 once a week, with 10 mice in each group.
4, Since senescent cells were mainly eliminated by immune cells in vivo, in addition to inhibiting the generation of senescent cells, the inventors also examined the effect of C1632 on the immune microenvironment of senescent lung tissue.

C57BL/6 mice = experiment: Safety profile in IPF model and control mice: body weight and routine blood test; type: in vivo
Method: In order to test the safety profile of C1632, the IPF model C57BL/6 mice and the control mice were intraperitoneally injected with 68 mg/kg C1632 three times a week and weighed, respectively. At the end of the experiment, the whole blood was a collected for routine blood test. […] In addition, the routine blood test results of mice in each group are mostly within the reference interval.

[3] = normal mice, 68 mg/kg i.p. three times a week

## CC(=O)N(C)c1cccc(-c2ccc3nnc(C)n3n2)c1 [C1632]
[1]
  Solubility: can be dissolved in water, ethanol or DMSO
  Thermal stability: good thermal stability
[2]; IPF mice + C1632, FIG. 9C
  Lung density relative to water (lung lobes placed in water): less dense than water
[2]; IPF mice + C1632 vs IPF mice + saline, FIG. 9D
  Lung density (drainage method): significantly reduced
[2]; IPF mice + C1632 vs control group, FIG. 9B
  Lung shape, color and hardness (gross appearance): closer to those of the control group
[2]; IPF mice, injection of C1632, FIG. 10A, 10B
  Infiltration of CD45 (total immune cells) in lung, IHC: significantly reduces the infiltration of immune cells
[2]; IPF mice, injection of C1632, FIG. 10A, 10C
  Infiltration of CD68 (macrophages) in lung, IHC: significantly reduces the infiltration
[2]; IPF mice, injection of C1632, FIG. 10A, 10D
  Infiltration of CD3 (T cells) in lung, IHC: significantly reduces the infiltration
[2]; IPF mice, FIG. 9I
  Hydroxyproline content in lung: significantly inhibit the increase of hydroxyproline
[2]; lungs of C1632-treated IPF mice, FIG. 9E to 9G
  Alveolar architecture and fibrosis areas, H&E and Masson staining: more alveolar architecture and less fibrosis areas
TERC−/− G4 mice; 68 mg/kg once a week, survival curves FIG. 2A
  Life span of TERC−/− G4 mice: greatly extended the life span
TERC−/− G4 mice; TERC−/− G4 mice, 68 mg/kg once a week from one month of age, 3 and a half months after the experiment, FIG. 2A
  Mice still surviving when all control mice had died: 80%
TERC−/− G4 mice; lung tissues from senescence mice, FIG. 3
  Immunosuppressive T cell marker FOXP3 in senescent lung tissue (immunohistochemistry): reduces the immunosuppressive T cell marker FOXP3
TERC−/− G4 mice; lungs of TERC−/− G4 mice, 68 mg/kg once a week, FIG. 2B
  Lung tissue senescence (expression of senescence markers p16 and p21, immunohistochemistry): significantly inhibited lung tissue senescence
C57BL/6 mice; IPF mice, 68 mg/kg i.p. three times a week, FIG. 11B to 11S
  Routine blood tests overall: does not cause deterioration
C57BL/6 mice; IPF model and control mice, 68 mg/kg intraperitoneally three times a week, FIG. 11A
  Body weight compared with the corresponding saline group: does not significantly change the body weight
C57BL/6 mice; IPF model mice, 68 mg/kg i.p. three times a week
  Mean platelet volume (MPV), model group: no significant effect
C57BL/6 mice; fibrotic (IPF) mice, 68 mg/kg i.p. three times a week
  PDW, fibrotic mice: no significant effect
C57BL/6 mice; [3]
  Mean platelet volume (MPV), normal mice: significantly increase
  PDW, normal mice: significantly inhibits
